Structures are written as SMILES. Some results are limits rather than exact numbers.

One assay concerns the target T1, Adenosine receptor A2b (Mus musculus, UniProt Q60614).
T1 sequence (Q60614 whole entry): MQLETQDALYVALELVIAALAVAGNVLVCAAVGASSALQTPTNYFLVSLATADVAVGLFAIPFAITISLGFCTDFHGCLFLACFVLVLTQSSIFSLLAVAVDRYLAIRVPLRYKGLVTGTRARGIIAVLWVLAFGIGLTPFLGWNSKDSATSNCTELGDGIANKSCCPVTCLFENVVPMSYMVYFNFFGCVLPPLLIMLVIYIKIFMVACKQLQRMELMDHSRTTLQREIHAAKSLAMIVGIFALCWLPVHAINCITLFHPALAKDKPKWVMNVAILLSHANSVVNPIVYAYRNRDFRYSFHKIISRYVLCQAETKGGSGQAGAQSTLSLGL
Kind of assay: Displacement of [3H]PSB-603 from recombinant mouse A2B adenosine receptor expressed in CHO cell membranes measured after 75 mins in presence of adenosine deaminase by liquid scintillation counting method. For orientation: Loss of bound radioactivity is the signal in a displacement assay; it reports binding, not function.

The species named for assay [1] is Mus musculus. Kind of assay: Selectivity ratio of Ki for displacement of [3H]CCPA from recombinant mouse A1 adenosine receptor expressed in CHO cell membranes to Ki for displacement of [3H]PSB-603 from recombinant mouse A2B adenosine receptor expressed in CHO cell membranes.
Another assay has as its target T2, Adenosine receptor A1 (Mus musculus, UniProt Q60612).
T2 sequence (Q60612 whole entry): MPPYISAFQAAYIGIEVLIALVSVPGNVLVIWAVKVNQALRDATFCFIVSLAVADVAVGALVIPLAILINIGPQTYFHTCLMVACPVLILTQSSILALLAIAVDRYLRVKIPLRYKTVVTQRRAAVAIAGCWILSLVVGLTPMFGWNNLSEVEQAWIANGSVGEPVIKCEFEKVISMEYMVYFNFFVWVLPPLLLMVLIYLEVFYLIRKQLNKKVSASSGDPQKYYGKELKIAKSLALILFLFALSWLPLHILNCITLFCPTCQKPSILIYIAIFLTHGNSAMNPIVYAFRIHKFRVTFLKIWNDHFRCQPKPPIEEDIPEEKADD
Kind of assay: Displacement of [3H]CCPA from recombinant mouse A1 adenosine receptor expressed in CHO cell membranes measured after 90 mins in presence of adenosine deaminase by liquid scintillation counting method.

Assay [2] in a line: Selectivity ratio of Ki for displacement of [3H]PSB-603 from recombinant mouse A2B adenosine receptor expressed in CHO cell membranes to Ki for displacement of [3H]PSB-603 from recombinant human A2B adenosine receptor expressed in CHO cell membranes.
Assay [3] has as its target T3, Adenosine receptor A1 (Mus musculus) (UniProt Q60612).
T3 sequence (whole entry): T2 sequence (Q60612 whole entry)
Kind of assay: Displacement of [3H]CCPA from recombinant mouse A1 adenosine receptor expressed in CHO cell membranes at 1 uM measured after 90 mins in presence of adenosine deaminase by liquid scintillation counting method relative to control.

Assay [4] is filed under the species Mus musculus. Kind of assay: Selectivity ratio of Ki for displacement of [3H]NECA from recombinant mouse A3 adenosine receptor expressed in CHO cell membranes to Ki for displacement of [3H]PSB-603 from recombinant mouse A2B adenosine receptor expressed in CHO cell membranes.

In general, Ki refers to the dissociation constant of the complex between target and ligand, obtained from inhibition or displacement. Usually inhibition stands for the drop in the measured response relative to a control, in per cent. On to `CCCn1c(=O)[nH]c2nc(-c3ccc(S(=O)(=O)N4CCN(c5cccc(F)c5)CC4)cc3)[nH]c2c1=O`, for which the figures for the Ki on Adenosine receptor A2b and at Adenosine receptor A1 were 0.926 nM and greater than 300 nM, respectively. In addition, the Ratio Ki in the assay listed under Mus musculus [1] was greater than 320; in assay [2] it was 1.5 to 6. Also, the inhibition in assay [3] was found to be 46%.
`CCCn1c(=O)c2[nH]c(-c3ccc(S(=O)(=O)N4CCN(c5ccc(Cl)cc5)CC4)cc3)nc2n(C)c1=O`: the Ki amounted to 8.34 nM on Adenosine receptor A2b and 1520 nM on Adenosine receptor A1. Further, the Ratio Ki in the assay listed under Mus musculus [4] is 180; in assay [2] it was 1.5 to 6.
As for `CCCn1c(=O)[nH]c2nc(-c3ccc(S(=O)(=O)N4CCN(c5ccc(Br)cc5)CC4)cc3)[nH]c2c1=O`, the Ki is 0.131 nM at Adenosine receptor A2b and greater than 1000 nM at Adenosine receptor A1. Besides, the Ratio Ki in the assay filed under Mus musculus [1] and in the assay filed under Mus musculus [4] was greater than 7630 each time. Also, in assay [3], the inhibition came out at 29%.

Source of the values: ChEMBL document CHEMBL4346653, “A2B Adenosine Receptor Antagonists with Picomolar Potency” (J Med Chem, 2019).
